# Patent publication US20240261417A1, “SOS1 DEGRADING AGENT AND PREPARATION METHOD THEREFOR AND APPLICATION THEREOF” (SHANGHAI LEADINGTAC PHARMACEUTICAL CO. LTD., priority 2021, published 2024)
# Tests used:
# SOS1 protein = target: T1, SOS1 protein (Homo sapiens, UniProt Q07889); experiment: SOS1 degradation assay (Western blot), NCI-H358 cells; format: cell-based; parameters: The degradation of SOS1 by the compounds was investigated on KRAS G12C mutant human non-small cell lung cancer cells NCI-H358; host or cells: NCI-H358 (human cancer cell lines); settings: SOS1 degradation, NCI-H358 cells, 24 h, Western blot; for DC50: read-out: NCI-H358 (G12C) DC50; for Dmax: read-out: NCI-H358 (G12C) Dmax
# T1 sequence (Q07889 1-1333): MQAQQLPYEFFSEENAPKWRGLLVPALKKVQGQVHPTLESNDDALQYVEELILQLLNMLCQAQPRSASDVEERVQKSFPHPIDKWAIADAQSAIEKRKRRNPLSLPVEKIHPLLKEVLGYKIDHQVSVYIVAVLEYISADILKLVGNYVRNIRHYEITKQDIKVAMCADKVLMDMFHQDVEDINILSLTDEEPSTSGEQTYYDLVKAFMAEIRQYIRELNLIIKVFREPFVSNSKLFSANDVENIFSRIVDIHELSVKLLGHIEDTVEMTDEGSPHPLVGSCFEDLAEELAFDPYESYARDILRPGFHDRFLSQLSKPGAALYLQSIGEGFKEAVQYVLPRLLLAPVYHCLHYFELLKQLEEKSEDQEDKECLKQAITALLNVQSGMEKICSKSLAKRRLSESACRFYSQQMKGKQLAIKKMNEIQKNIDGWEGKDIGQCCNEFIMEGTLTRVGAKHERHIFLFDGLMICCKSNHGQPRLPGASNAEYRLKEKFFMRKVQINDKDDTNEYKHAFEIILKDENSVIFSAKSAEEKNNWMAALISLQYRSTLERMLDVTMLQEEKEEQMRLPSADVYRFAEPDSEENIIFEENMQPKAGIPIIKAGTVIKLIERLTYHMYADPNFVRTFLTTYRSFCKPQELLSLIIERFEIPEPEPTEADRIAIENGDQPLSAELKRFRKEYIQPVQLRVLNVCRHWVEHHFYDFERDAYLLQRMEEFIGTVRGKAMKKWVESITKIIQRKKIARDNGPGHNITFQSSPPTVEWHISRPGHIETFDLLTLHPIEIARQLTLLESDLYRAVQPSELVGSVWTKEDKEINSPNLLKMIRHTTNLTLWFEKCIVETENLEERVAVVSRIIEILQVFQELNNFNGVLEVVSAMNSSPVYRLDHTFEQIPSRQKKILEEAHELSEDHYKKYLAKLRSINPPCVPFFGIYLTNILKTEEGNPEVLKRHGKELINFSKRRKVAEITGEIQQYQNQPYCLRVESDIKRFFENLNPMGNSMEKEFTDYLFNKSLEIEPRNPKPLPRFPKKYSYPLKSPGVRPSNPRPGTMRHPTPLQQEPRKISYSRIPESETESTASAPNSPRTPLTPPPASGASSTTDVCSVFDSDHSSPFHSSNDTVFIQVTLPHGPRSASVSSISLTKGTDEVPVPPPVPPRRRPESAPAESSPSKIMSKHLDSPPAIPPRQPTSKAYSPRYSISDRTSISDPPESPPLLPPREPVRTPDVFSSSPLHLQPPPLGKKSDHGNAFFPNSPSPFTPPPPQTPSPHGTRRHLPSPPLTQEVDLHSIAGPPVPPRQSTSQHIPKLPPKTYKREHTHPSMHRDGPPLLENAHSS
# How it was run: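 Cells at 5×10^5 per well were treated for 24 h at 37 °C with compound at 0.03–3000 nM final. SOS1 in lysates was measured by Western blot with chemiluminescent densitometry and normalised to the control group. DC50 and Dmax came from nonlinear fits against log concentration.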
# KRAS-G12C/SOS1 = target: T2, KRAS-G12C/SOS1 (Homo sapiens, UniProt Q07889); experiment: KRAS-G12C/SOS1 binding assay (HTRF); settings: inhibition of KRAS-G12C/SOS1 binding
# T2 construct: purchased Cisbio 63ADKOOOCB16PEG
# T2 sequence (Q07889 1-1333): T1 sequence (Q07889 1-1333)
# How it was run: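 HTRF competition assay with Tag1-SOS1 and Tag2-KRAS-G12C (10 μM GTP). Compounds at 10000 nM-0.04 nM final (0.5% DMSO), incubated 15 min at 25° C, then anti-tag Tb3+/XL665 antibodies added for 3 h on ice. The 665/620 nm ratio was compared with control and IC50 derived by nonlinear fit.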
SMILES,DC50 (SOS1 protein) [nM],IC50 (KRAS-G12C/SOS1) [nM],Dmax (SOS1 protein) [%]
"COc1cc2nc(C)nc(N[C@H](C)c3cc(-c4c(Cl)cccc4CN(C)C)cs3)c2cc1[C@H]1CC[C@H](C(=O)N2CCC(CCOCC3CCN(C(=O)c4ccc(C(F)(F)F)c(N5CCC(=O)NC5=O)c4)CC3)CC2)CC1 [Example 57, 1-(5-(4-((2-(1-((1R,4R)-4-(4-(((R)-1-(4-(2-chloro-6-((dimethylamino)methyl)phenyl)thien-2-yl)ethyl)amino)-7-methoxy-2-methylquinazolin-6-yl)cyclohexane-1-carbonyl)piperidin-4-yl)ethoxy)methyl)piperidine-1-carbonyl)-2-(trifluoromethyl)phenyl)dihydropyrimidine-2,4(1H,3H)-dione]",< 50,≤ 15,–
CNCc1ccccc1-c1csc([C@@H](C)Nc2nc(C)nc3cc(OC)c([C@H]4CC[C@H](C(=O)N5CCN(CCC6CCC7(CC6)CCN(C(=O)c6ccc(Cl)c(N8CCC(=O)NC8=O)c6)CC7)CC5)CC4)cc23)c1 [Example 50],< 50,≤ 15,80 to 100
"COc1cc2nc(C)nc(N[C@H](C)c3cc(N)cc(C(F)(F)F)c3)c2cc1[C@H]1CC[C@H](C(=O)N2CCN(CCCOC3CCN(C(=O)c4ccc(Cl)c(N5CCC(=O)NC5=O)c4)CC3)CC2)CC1 [Example 28, 1-(5-(4-(3-(4-((1R,4R)-4-(4-(((R)-1-(3-amino-5-(trifluoromethyl)phenyl)ethyl)amino)-7-methoxy-2-methylquinazolin-6-yl)cyclohexane-1-carbonyl)piperazin-1-yl)propoxy)piperidine-1-carbonyl)-2-chlorophenyl)dihydropyrimidine-2,4(1H,3H)-dione]",< 50,≤ 15,50 to 80
"CNCc1ccccc1-c1csc([C@@H](C)Nc2nc(C)nc3cc(OC)c([C@H]4CC[C@H](C(=O)N(C)CCCC5CCN(C(=O)c6ccc(Cl)c(N7CCC(=O)NC7=O)c6)CC5)CC4)cc23)c1 [Example 47, (1R,4R)—N-(3-(1-(4-chloro-3-(2,4-dioxotetrahydropyrimidin-1(2H)-yl)benzoyl)piperidin-4-yl)propyl)-4-(7-methoxy-2-methyl-4-(((R)-1-(4-(2-((methylamino)methyl)phenyl)thien-2-yl)ethyl)amino)quinazolin-6-yl)-N-methylcyclohexane-1-carboxamide]",1000 to 10000,≤ 15,< 30
"COc1cc2nc(C)nc(N[C@H](C)c3cc(-c4c(Cl)cccc4CN(C)C)cs3)c2cc1C1=CCC(C(=O)N2CCC(CCOCC3CCN(C(=O)c4ccc(Cl)c(C5CCC(=O)NC5=O)c4)CC3)CC2)CC1 (stereo partly drawn) [Example 46, 3-(2-chloro-5-(4-((2-(1-(4-(4-(((R)-1-(4-(2-chloro-6-((dimethylamino)methyl)phenyl)thien-2-yl)ethyl)amino)-7-methoxy-2-methylquinazolin-6-yl)cyclohex-3-ene-1-carbonyl)piperidin-4-yl)ethoxy)methyl)piperidine-1-carbonyl)phenyl)piperidine-2,6-dione]",< 50,≤ 15,50 to 80
"COc1cc2nc(C)nc(N[C@H](C)c3cc(-c4c(Cl)cccc4CN(C)C)cs3)c2cc1[C@H]1CC[C@H](C(=O)N2CCC(COCC3CCN(C(=O)c4ccc(Cl)c(N5CCC(=O)NC5=O)c4)CC3)CC2)CC1 [Example 65, 1-(2-chloro-5-(4-(((1-((1R,4R)-4-(4-(((R)-1-(4-(2-chloro-6-((dimethylamino)methyl)phenyl)thien-2-yl)ethyl)amino)-7-methoxy-2-methylquinazolin-6-yl)cyclohexane-1-carbonyl)piperidin-4-yl)methoxy)methyl)piperidine-1-carbonyl)phenyl)dihydropyrimidine-2,4(1H,3H)-dione]",1000 to 10000,≤ 15,< 30
"COc1cc2nc(C)nc(N[C@H](C)c3cc(-c4c(Cl)cccc4CN(C)C)cs3)c2cc1[C@H]1CC[C@H](C(=O)N2CCN(CCC3CCC4(CC3)CCN(C(=O)c3ccc(Cl)c(N5CCC(=O)NC5=O)c3)CC4)CC2)CC1 [Example 62, 1-(2-chloro-5-(9-(2-(4-((1R,4R)-4-(4-(((R)-1-(4-(2-chloro-6-((dimethylamino)methyl)phenyl)thien-2-yl)ethyl)amino)-7-methoxy-2-methylquinazolin-6-yl)cyclohexane-1-carbonyl)piperazin-1-yl)ethyl)-3-azaspiro[5.5]undecane-3-carbonyl)phenyl)dihydropyrimidine-2,4(1H,3H)-dione]",< 50,≤ 15,80 to 100
"COc1cc2nc(C)nc(N[C@H](C)c3cc(-c4c(Cl)cccc4CN(C)C)cs3)c2cc1[C@H]1CC[C@H](C(=O)N2CCN(CC3CCC4(CC3)CCN(C(=O)c3ccc(F)c(N5CCC(=O)NC5=O)c3)CC4)CC2)CC1 [Example 60, 1-(5-(9-((4-((1R,4R)-4-(4-(((R)-1-(4-(2-chloro-6-((dimethylamino)methyl)phenyl)thien-2-yl)ethyl)amino)-7-methoxy-2-methylquinazolin-6-yl)cyclohexane-1-carbonyl)piperazin-1-yl)methyl)-3-azaspiro[5.5]undecane-3-carbonyl)-2-fluorophenyl)dihydropyrimidine-2,4(1H,3H)-dione]",< 50,≤ 15,50 to 80
"COc1cc2nc(C)nc(N[C@H](C)c3cc(-c4c(Cl)cccc4CN(C)C)cs3)c2cc1[C@H]1CC[C@H](C(=O)N2CCN(CCCOC3CCN(C(=O)c4ccc(Cl)c(N5CCC(=O)NC5=O)c4)CC3)CC2)CC1 [Example 68, 1-(2-chloro-5-(4-(3-(4-((1R,4R)-4-(4-(((R)-1-(4-(2-chloro-6-((dimethylamino)methyl)phenyl)thien-2-yl)ethyl)amino)-7-methoxy-2-methylquinazolin-6-yl)cyclohexane-1-carbonyl)piperazin-1-yl)propoxy)piperidine-1-carbonyl)phenyl)dihydropyrimidine-2,4(1H,3H)-dione]",< 50,≤ 15,50 to 80
"COc1cc2nc(C)nc(N[C@H](C)c3cc(-c4c(Cl)cccc4CN(C)C)cs3)c2cc1[C@H]1CC[C@H](C(=O)N2CCC(CCCOC3CCN(C(=O)c4ccc(Cl)c(N5CCC(=O)NC5=O)c4)CC3)CC2)CC1 [Example 54, 1-(2-chloro-5-(4-(3-(1-((1R,4R)-4-(4-(((R)-1-(4-(2-chloro-6-((dimethylamino)methyl)phenyl)thien-2-yl)ethyl)amino)-7-methoxy-2-methylquinazolin-6-yl)cyclohexane-1-carbonyl)piperidin-4-yl)propoxy)piperidine-1-carbonyl)phenyl)dihydropyrimidine-2,4(1H,3H)-dione]",< 50,≤ 15,80 to 100
"COc1cc2nc(C)nc(N[C@H](C)c3cc(N)cc(C(F)(F)F)c3)c2cc1[C@H]1CC[C@H](C(=O)N2CCN(CCN3CCC4(CC3)CCN(C(=O)c3ccc(Cl)c(N5CCC(=O)NC5=O)c3)CC4)CC2)CC1 [Example 3, 1-(5-(9-(2-(4-((1R,4R)-4-(4-(((R)-1-(3-amino-5-(trifluoromethyl)phenyl)ethyl)amino)-7-methoxy-2-methylquinazolin-6-yl)cyclohexane-1-carbonyl)piperazin-1-yl)ethyl)-3,9-diazaspiro[5.5]undecane-3-carbonyl)-2-chlorophenyl)dihydropyrimidine-2,4(1H,3H)-dione]",< 50,≤ 15,80 to 100
